# Numbers after ± are expanded uncertainties.
# Experiments:
# [1] = 101 kPa, Liquid, Vibrating tube method
# [2] = xn = mol fraction of the nth substance listed; conditions: 101 kPa, Liquid, Vibrating tube method
SMILES,mass density ([1]; 288.15 K),mass density ([1]; 293.15 K),mass density ([1]; 298.15 K),mass density ([1]; 303.15 K),mass density ([1]; 308.15 K),mass density ([1]; 313.15 K),mass density ([1]; 318.15 K),mass density ([1]; 323.15 K),"mass density ([2]; 288.15 K, x2 = 0)","mass density ([2]; 293.15 K, x2 = 0)","mass density ([2]; 298.15 K, x2 = 0)","mass density ([2]; 303.15 K, x2 = 0)","mass density ([2]; 308.15 K, x2 = 0)","mass density ([2]; 313.15 K, x2 = 0)","mass density ([2]; 318.15 K, x2 = 0)","mass density ([2]; 323.15 K, x2 = 0)",other results
CCCCO [butan-1-ol],813.373 ± 0.18 kg/m3,809.573 ± 0.18 kg/m3,805.762 ± 0.18 kg/m3,801.923 ± 0.18 kg/m3,798.053 ± 0.19 kg/m3,794.147 ± 0.19 kg/m3,790.231 ± 0.19 kg/m3,786.238 ± 0.19 kg/m3,,,,,,,,,
CCCCO [butan-1-ol] + NC1CCCCC1,,,,,,,,,,,,,,,,,"mass density ([2]; 288.15 K, x1 = 1): 813.373 ± 0.18 kg/m3; mass density ([2]; 293.15 K, x1 = 1): 809.573 ± 0.18 kg/m3; mass density ([2]; 298.15 K, x1 = 1): 805.762 ± 0.18 kg/m3; mass density ([2]; 303.15 K, x1 = 1): 801.923 ± 0.18 kg/m3; mass density ([2]; 308.15 K, x1 = 1): 798.053 ± 0.19 kg/m3; mass density ([2]; 313.15 K, x1 = 1): 794.147 ± 0.19 kg/m3; mass density ([2]; 318.15 K, x1 = 1): 790.231 ± 0.19 kg/m3; mass density ([2]; 323.15 K, x1 = 1): 786.238 ± 0.19 kg/m3"
NC1CCCCC1 [cyclohexylamine],871.29 ± 0.3 kg/m3,866.747 ± 0.3 kg/m3,862.207 ± 0.3 kg/m3,857.671 ± 0.3 kg/m3,853.138 ± 0.3 kg/m3,848.607 ± 0.3 kg/m3,844.073 ± 0.3 kg/m3,839.547 ± 0.3 kg/m3,,,,,,,,,
CCCCCCC [heptane],687.954 ± 0.23 kg/m3,683.733 ± 0.23 kg/m3,679.494 ± 0.23 kg/m3,675.229 ± 0.24 kg/m3,670.941 ± 0.24 kg/m3,666.621 ± 0.24 kg/m3,662.273 ± 0.24 kg/m3,657.896 ± 0.24 kg/m3,,,,,,,,,
CCCCCCC [heptane] + CCCCO,,,,,,,,,687.954 ± 0.23 kg/m3,683.733 ± 0.23 kg/m3,679.494 ± 0.23 kg/m3,675.229 ± 0.24 kg/m3,670.941 ± 0.24 kg/m3,666.621 ± 0.24 kg/m3,662.273 ± 0.24 kg/m3,657.896 ± 0.24 kg/m3,
CCCCCCC [heptane] + NC1CCCCC1,,,,,,,,,687.954 ± 0.23 kg/m3,683.733 ± 0.23 kg/m3,679.494 ± 0.23 kg/m3,675.229 ± 0.24 kg/m3,670.941 ± 0.24 kg/m3,666.621 ± 0.24 kg/m3,662.273 ± 0.24 kg/m3,657.896 ± 0.24 kg/m3,
